Laboratory results reported in PubChem BioAssay AID248 (DTP/NCI, 2004).
Values joined by “and” are separate entries in the source; they are usually repeats but may differ in a detail not shown here. Equal entries are not always repeated. Toxic doses and inconclusive results are not listed. Cut-off read from the data, not from the text of the source: active = T/C of 150% or more; inactive = T/C below 125%.

Tested on: L1210 leukemia ip in BDF1 mice, survival T/C
Assay: NCI In Vivo Anticancer Drug Screen. Data for tumor model L1210 Leukemia (intraperitoneal) in B6D2F1 (BDF1) mice
Conditions: endpoint: mean survival time, higher = longer survival
Procedure, shortened: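 Antitumor effect is assessed in tumor-bearing animals. Survival in the compound arm is compared with a vehicle-dosed control arm and expressed as their quotient.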

[1] = dose: 100.0 mg/kg/injection, schedule: Q01DX001 (ip), vehicle: carboxymethylcellulose (CMC)
[2] = dose: 200.0 mg/kg/injection, schedule: Q01DX001 (ip), vehicle: carboxymethylcellulose (CMC)
[3] = dose: 400.0 mg/kg/injection, schedule: Q01DX001 (ip), vehicle: carboxymethylcellulose (CMC)
[4] = dose: 100.0 mg/kg/injection, schedule: Q04DX003 (ip), vehicle: saline with Tween-80
[5] = dose: 200.0 mg/kg/injection, schedule: Q04DX003 (ip), vehicle: saline with Tween-80
[6] = dose: 400.0 mg/kg/injection, schedule: Q04DX003 (ip), vehicle: saline with Tween-80
[7] = dose: 100.0 mg/kg/injection, schedule: Q01DX009 (ip), vehicle: saline with Tween-80
[8] = dose: 200.0 mg/kg/injection, schedule: Q01DX009 (ip), vehicle: saline with Tween-80
[9] = dose: 400.0 mg/kg/injection, schedule: Q01DX009 (ip), vehicle: saline with Tween-80
[10] = dose: 100.0 mg/kg/injection, schedule: Q04DX003 (ip), vehicle: Klucel (hydroxypropylcellulose) (HPC)
[11] = dose: 200.0 mg/kg/injection, schedule: Q04DX003 (ip), vehicle: Klucel (hydroxypropylcellulose) (HPC)
[12] = dose: 400.0 mg/kg/injection, schedule: Q04DX003 (ip), vehicle: Klucel (hydroxypropylcellulose) (HPC)

Measured: T/C

Oc1ccc2ccccc2c1N=Nc1ccc(Cl)cc1
inactive: dose: 12.5 mg/kg/injection, schedule: Q01DX015 (ip), vehicle: saline 104 % of control | dose: 25.0 mg/kg/injection, schedule: Q01DX015 (ip), vehicle: saline 106 % of control | dose: 50.0 mg/kg/injection, schedule: Q01DX015 (ip), vehicle: saline 106 % of control | dose: 100.0 mg/kg/injection, schedule: Q01DX009 (ip), vehicle: carboxymethylcellulose (CMC) 87 % of control | dose: 100.0 mg/kg/injection, schedule: Q01DX015 (ip), vehicle: saline 98 % of control | dose: 100.0 mg/kg/injection, schedule: Q04DX003 (ip), vehicle: acetone 98 % of control | dose: 200.0 mg/kg/injection, schedule: Q01DX009 (ip), vehicle: carboxymethylcellulose (CMC) 87 % of control | dose: 200.0 mg/kg/injection, schedule: Q01DX015 (ip), vehicle: saline 95 % of control | dose: 200.0 mg/kg/injection, schedule: Q04DX003 (ip), vehicle: acetone 94 % of control | dose: 400.0 mg/kg/injection, schedule: Q01DX015 (ip), vehicle: saline 90 % of control | dose: 400.0 mg/kg/injection, schedule: Q04DX003 (ip), vehicle: acetone 88 % of control | dose: 800.0 mg/kg/injection, schedule: Q01DX015 (ip), vehicle: saline 96 % of control | dose: 1600.0 mg/kg/injection, schedule: Q01DX015 (ip), vehicle: saline 89 % of control

CCS(=O)(=O)C(CCC(C)C)CCC(C)C
inactive: [1] 102 % of control | [2] 109 % of control | [3] 104 % of control

O=C(O)C1C2CCC(O2)C1C(=O)Nc1ccccc1 (stereo unspecified)
inactive: dose: 75.0 mg/kg/injection, schedule: Q01DX001 (ip), vehicle: carboxymethylcellulose (CMC) 102 % of control | dose: 150.0 mg/kg/injection, schedule: Q01DX001 (ip), vehicle: carboxymethylcellulose (CMC) 102 % of control | dose: 300.0 mg/kg/injection, schedule: Q01DX001 (ip), vehicle: carboxymethylcellulose (CMC) 101 % of control

Cc1cccc(C(=O)[O][Pb]([CH3])([CH3])[CH3])c1
inactive: dose: 12.5 mg/kg/injection, schedule: Q04DX002 (ip), vehicle: Klucel (hydroxypropylcellulose) (HPC) 100 % of control

NC(=O)c1cc([N+](=O)[O-])ccc1Cl
inactive: [4] 97 % of control | [5] 97 % of control | [6] 101 % of control

Oc1ccccc1N=Cc1ccc(C=Nc2ccccc2O)cc1
inactive: dose: 100.0 mg/kg/injection, schedule: Q01DX009 (ip), vehicle: gum acacia 101 % of control | dose: 100.0 mg/kg/injection, schedule: Q04DX003 (ip), vehicle: gum acacia 100 % of control | dose: 200.0 mg/kg/injection, schedule: Q01DX009 (ip), vehicle: gum acacia 97 % of control | dose: 200.0 mg/kg/injection, schedule: Q04DX003 (ip), vehicle: gum acacia 98 % of control | dose: 400.0 mg/kg/injection, schedule: Q01DX009 (ip), vehicle: gum acacia 107 % of control | dose: 400.0 mg/kg/injection, schedule: Q04DX003 (ip), vehicle: gum acacia 94 % of control

O=C(Oc1ccccc1)C(O)CO (stereo unspecified)
inactive: [7] 92 % of control | [8] 96 % of control | [9] 93 % of control

Cc1ccc(-n2c(O)c(N=Nc3ccc(Cl)cc3)c(=O)n(-c3ccc(Cl)cc3)c2=S)cc1
inactive: dose: 50.0 mg/kg/injection, schedule: Q01DX001 (ip), vehicle: Klucel (hydroxypropylcellulose) (HPC) 100 % of control | dose: 100.0 mg/kg/injection, schedule: Q01DX001 (ip), vehicle: Klucel (hydroxypropylcellulose) (HPC) 105 % of control | dose: 200.0 mg/kg/injection, schedule: Q01DX001 (ip), vehicle: Klucel (hydroxypropylcellulose) (HPC) 95 % of control

CN(C)C=Nc1ccccc1
inactive: dose: 100.0 mg/kg/injection, schedule: Q01DX009 (ip), vehicle: Klucel (hydroxypropylcellulose) (HPC) 109 % of control | [10] 111 % of control | dose: 200.0 mg/kg/injection, schedule: Q01DX009 (ip), vehicle: Klucel (hydroxypropylcellulose) (HPC) 101 % of control | [11] 97 % of control | dose: 400.0 mg/kg/injection, schedule: Q01DX009 (ip), vehicle: Klucel (hydroxypropylcellulose) (HPC) 100 % of control | [12] 93 % of control

CC(CC(=O)c1ccc(F)cc1)N1CCOCC1 (stereo unspecified)
inactive: dose: 100.0 mg/kg/injection, schedule: Q01DX001 (ip), vehicle: saline 92 % of control | dose: 200.0 mg/kg/injection, schedule: Q01DX001 (ip), vehicle: saline 90 % of control

CC(C)CCC(O)c1cnc(OCc2ccccc2)nc1OCc1ccccc1 (stereo unspecified)
inactive: [10] 92 % of control | [11] 95 % of control | [12] 100 % of control

COc1cc(CC2=NCCc3cc(OC)c(OCc4ccccc4)cc32)ccc1OCc1ccccc1
inactive: [7] 94 % of control | [8] 100 % of control

O=C(NCc1ccccc1)C(F)(F)F
inactive: dose: 100.0 mg/kg/injection, schedule: Q01DX001 (ip), vehicle: saline with Tween-80 102 % of control | dose: 200.0 mg/kg/injection, schedule: Q01DX001 (ip), vehicle: saline with Tween-80 102 % of control | dose: 400.0 mg/kg/injection, schedule: Q01DX001 (ip), vehicle: saline with Tween-80 100 % of control

S=P(S)(c1ccccc1)c1ccccc1
inactive: [4] 91 % of control | [5] 94 % of control | [6] 100 % of control

Oc1ccc(N=Cc2ccc(C=Nc3ccc(O)cc3)cc2)cc1
inactive: [7] 106 % of control | [4] 112 % of control | [8] 100 % of control | [5] 100 % of control | [9] 105 % of control | [6] 100 % of control

O=C(O)CCNCc1ccccc1
inactive: dose: 50.0 mg/kg/injection, schedule: Q01DX009 (ip), vehicle: saline 100 % of control | dose: 100.0 mg/kg/injection, schedule: Q01DX009 (ip), vehicle: saline 108 % of control | dose: 100.0 mg/kg/injection, schedule: Q04DX002 (ip), vehicle: saline 111 % of control | dose: 200.0 mg/kg/injection, schedule: Q01DX009 (ip), vehicle: saline 100 % of control | dose: 200.0 mg/kg/injection, schedule: Q04DX002 (ip), vehicle: saline 97 % of control | dose: 400.0 mg/kg/injection, schedule: Q04DX002 (ip), vehicle: saline 97 % of control

C[N+](C)(CC(=O)Nc1cc(C(F)(F)F)cc(C(F)(F)F)c1)CC(=O)Nc1ccc(Cl)c(C(F)(F)F)c1
inactive: dose: 6.25 mg/kg/injection, schedule: Q04DX002 (ip), vehicle: saline with Tween-80 93 % of control | dose: 12.5 mg/kg/injection, schedule: Q04DX002 (ip), vehicle: saline with Tween-80 93 % of control | dose: 25.0 mg/kg/injection, schedule: Q04DX002 (ip), vehicle: saline with Tween-80 100 % of control and 91 % of control

CCOC/C=C\c1ccccc1
inactive: dose: 50.0 mg/kg/injection, schedule: Q01DX009 (ip), vehicle: saline with Tween-80 95 % of control | [7] 92 % of control | [8] 92 % of control

CC(=O)N(C)c1ccc(/C=C2\C=Cc3ccccc32)cc1
inactive: dose: 50.0 mg/kg/injection, schedule: Q01DX001 (ip), vehicle: carboxymethylcellulose (CMC) 96 % of control | [1] 98 % of control | [2] 96 % of control | [3] 96 % of control
